In this test the test system is coronary vasospasm. Nature of the test: Treatment of coronary vasospasm after off pump beating coronary artery bypass grafting (angiography, case reports). In kind it is in vivo, patient. As to the method:
To a patient who had been subjected to off pump beating coronary artery bypass grafting (in which a left internal thoracic artery was anastomosed to each of a left anterior descending coronary artery and a diagonal branch), during and after the operation, isosorbide dinitrate (2 to 5 mg/hour), diltiazem (1 to 2 mg/hour), nicorandil (4 to 6 mg/hour), and catecholamines (1 to 2 μg/kg per minute of dopamine and 1 to 2 μg/kg per minute of dobutamine) were continuously intravenously administered. However, after three hours of the operation, severe coronary vasospasm occurred. The coronary vasospasm occurred in a right coronary artery which was not related to the bypass operation. Isosorbide dinitrate (total of 10 mg) was administered into the coronary artery, but it had no effect on the vasospasm. Therefore, fasudil hydrochloride was dissolved in a physiological saline and then the mixture was administered into the right coronary artery for 15 minutes at a rate of 1.5 mg/minute. As a result, the coronary vasospasm was resolved (see FIG. 1). At the occurrence of the vasospasm and after the administration of isosorbide dinitrate, the right coronary artery became thin like a thread due to the vasospasm and peripheral part thereof was not illustrated. However, after the administration of fasudil hydrochloride, the peripheral part was illustrated. […] After that, fasudil hydrochloride was dissolved in the physiological saline and the mixture was continuously administered into the vein for 72 hours (tapered from 10 mg/hour).
To a patient who had been subjected to off pump beating coronary artery bypass grafting (in which a saphenous vein graft was anastomosed from an aorta to a left anterior descending coronary artery), during and after the operation, isosorbide dinitrate (1 to 5 mg/hour), diltiazem (1 to 2 mg/hour), and catecholamines (1 to 2 μg/kg per minute of dopamine, dobutamine, and norepinephrine, respectively) were continuously intravenously administered. However, after five hours of the operation, severe coronary vasospasm occurred. The coronary vasospasm occurred in a right coronary artery and a left circumflex coronary artery which were not related to the bypass operation. Isosorbide dinitrate (total of 10 mg) was administered into the right coronary artery, but it had no effect on the vasospasm. Therefore, fasudil hydrochloride was dissolved in a physiological saline and then the mixture was administered into the right coronary artery for 15 minutes at a rate of 1.5 mg/minute As a result, the coronary vasospasm was resolved (see FIG. 1). At the occurrence of the vasospasm and after the administration of isosorbide dinitrate, the distal part thereof from the portion where the vasospasm had occurred was not illustrated. However, after the administration of fasudil hydrochloride, the peripheral part was illustrated. […] After that, fasudil hydrochloride was dissolved in the physiological saline and the mixture was continuously administered into the vein for 72 hours (tapered from 10 mg/hour).
To a patient who had been subjected to off pump beating coronary artery bypass grafting (in which a right internal thoracic artery was anastomosed to a left anterior descending coronary artery and a left internal thoracic artery was anastomosed to a posterolateral branch of a left circumflex coronary artery), during the operation, isosorbide dinitrate (1 to 3 mg/hour), diltiazem (0.5 to 1 mg/hour), nicorandil (2 to 3 mg/hour), and catecholamines (1 to 5 μg/kg per minute of dopamine, 1 to 2 μg/kg per minute of dobutamine, and 1 to 2 μg/min of norepinephrine) were continuously intravenously administered. However, severe coronary vasospasm occurred immediately thereafter. The vasospasm occurred in the right coronary artery which was not related to the bypass operation and the bypass artery grafts (the right internal thoracic artery and the left internal thoracic artery) while the anastomosis region was left open. […]

Counter-ions that a name gives are not always drawn.

Turning to `O=S(=O)(c1cccc2cnccc12)N1CCCNCC1` [fasudil hydrochloride], the “recurrence of coronary vasospasm” value runs as follows: (Example 1 patient, continuous intravenous administration for 72 hours (tapered from 10 mg/hour)) “did not occur again”; (Example 2 patient, continuous intravenous administration for 72 hours (tapered from 10 mg/hour)) “did not occur again”; (Example 3 patient, continuous intravenous administration for 48 hours (tapered from 30 mg/hour)) “did not occur again”. Moreover, the “effect on the coronary vasospasm” value was “resolved” (Example 1 patient, fasudil hydrochloride in physiological saline into the right coronary artery for 15 minutes at 1.5 mg/minute); “resolved” (Example 2 patient, fasudil hydrochloride in physiological saline into the right coronary artery for 15 minutes at 1.5 mg/minute); “resolved” (Example 3 patient, fasudil hydrochloride in physiological saline into each of the blood vessels for 15 minutes at 1.5 mg/minute).

The values are drawn from patent US20080242660A1, “Therapeutic Agent for Vasospasm Accompanying Bypass Operation” (ASAHI KASEI PHARMA CORPORATION, priority 2004, published 2008).
